Our source for the GI50 and TGI values is PubChem BioAssay (NCI).

Some test systems named below: SK-MEL-5 melanoma; OVCAR-3 ovarian; A549 NSCLC; SF-268 CNS; MOLT-4 leukemia; TK-10 renal; UACC-62 melanoma; SNB-75 CNS; SK-OV-3 ovarian; SF-295 CNS.
Holding throughout (experiment): DTP human tumour cell line panel, 48 h

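Each compound was tested at five concentrations against cells in 96-well plates for 48 hours. GI50 = concentration required for 50% inhibition of growth. TGI: total growth inhibition.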

By GI50 is commonly meant the concentration at which growth is held to half of that of the control. What is called TGI is the concentration giving total growth inhibition. A high value points to less potent growth arrest. Take `O=C1/C(=C/c2ccc(O)cc2)COc2ccc(-c3ccccc3)cc21`: the GI50 is 8.67 µM with SK-MEL-5 melanoma; 2.49 µM with OVCAR-3 ovarian; 13.2 µM in the assay on A549 NSCLC; 5.49 µM with SF-268 CNS; 1.62 µM with MOLT-4 leukemia; 2.98 µM in the assay on TK-10 renal. For the same compound, the GI50 was 12.7 µM with UACC-62 melanoma, 5.17 µM in the assay on SNB-75 CNS, 21.4 µM with SK-OV-3 ovarian and 6.8 µM in the assay on SF-295 CNS. For the same compound, the TGI is 22.9 µM in the assay with SK-MEL-5 melanoma; 8.14 µM with OVCAR-3 ovarian; 49.6 µM in the assay with A549 NSCLC; 22.8 µM with SF-268 CNS; more than 32.5 µM with MOLT-4 leukemia; 11.9 µM with TK-10 renal. For the same compound, the TGI came out at 25.6 µM with UACC-62 melanoma, 15.5 µM in the assay on SNB-75 CNS, 46.1 µM with SK-OV-3 ovarian and 24.7 µM in the assay with SF-295 CNS.
With `CCCCN(Cc1ccc(F)cc1)c1ccc(CO)c(Cl)c1`, the GI50 in the assay on SK-MEL-5 melanoma was 14.3 µM; in the assay with OVCAR-3 ovarian it was 3.74 µM; in the assay with A549 NSCLC, 7.38 µM; with SF-268 CNS it was 19.3 µM; in the assay on MOLT-4 leukemia, 17.8 µM; in the assay on TK-10 renal it was 0.319 µM. Further, the GI50 is 0.903 µM in the assay on UACC-62 melanoma, 13.1 µM with SNB-75 CNS, 15 µM in the assay with SK-OV-3 ovarian and 3.96 µM with SF-295 CNS. Further, the TGI in the assay on SK-MEL-5 melanoma amounted to 27.5 µM; in the assay on OVCAR-3 ovarian, 12.9 µM; in the assay with A549 NSCLC it was 21.6 µM; in the assay on SF-268 CNS, 36 µM; in the assay on MOLT-4 leukemia, 43.1 µM; in the assay on TK-10 renal it was 1.89 µM. The TGI in the assay on UACC-62 melanoma turned out to be 4.84 µM; in the assay on SNB-75 CNS, 26.1 µM; in the assay on SK-OV-3 ovarian it was 28.2 µM; with SF-295 CNS it was 17.2 µM.
Consider `COc1cc[nH]c1/C=C1\C(=O)Nc2ccc(F)c(I)c21`, for which the GI50 in the assay on SK-MEL-5 melanoma, with OVCAR-3 ovarian, with A549 NSCLC, in the assay with SF-268 CNS, in the assay with MOLT-4 leukemia and in the assay with TK-10 renal was more than 25 µM in each case. Moreover, the GI50 with UACC-62 melanoma, in the assay on SNB-75 CNS, with SK-OV-3 ovarian and with SF-295 CNS was more than 25 µM in each case. Also, the TGI with SK-MEL-5 melanoma, in the assay with OVCAR-3 ovarian, in the assay with A549 NSCLC, in the assay with SF-268 CNS, with MOLT-4 leukemia and in the assay on TK-10 renal was more than 25 µM throughout. For the same compound, the concentration for total growth inhibition (TGI) in the assay on UACC-62 melanoma, in the assay with SNB-75 CNS, in the assay on SK-OV-3 ovarian and in the assay with SF-295 CNS was more than 25 µM in each case.
Turning to `CCCCn1cnc2c(SC)ncnc21`, the TGI in the assay on SK-MEL-5 melanoma, in the assay with OVCAR-3 ovarian, in the assay with A549 NSCLC, in the assay with SF-268 CNS, in the assay on MOLT-4 leukemia and in the assay on TK-10 renal was more than 100 µM in each case. For the same compound, the TGI with UACC-62 melanoma, in the assay with SNB-75 CNS, in the assay with SK-OV-3 ovarian and in the assay with SF-295 CNS was more than 100 µM each time.
For `COc1cc([C@@H]2c3cc4c(cc3[C@@H](NC(=O)c3ccccc3)C3COC(=O)[C@@H]32)OCO4)cc(OC)c1O` (stereo not given in full), the total growth inhibition concentration (TGI) with SK-MEL-5 melanoma is 14.1 µM; in the assay with OVCAR-3 ovarian it was 56.7 µM; with A549 NSCLC it was 16.6 µM; in the assay with SF-268 CNS, more than 100 µM; in the assay on MOLT-4 leukemia it was 9.18 µM; in the assay on TK-10 renal, 92.5 µM. Besides, the TGI in the assay on UACC-62 melanoma was 11.6 µM; in the assay on SNB-75 CNS, 38 µM; with SK-OV-3 ovarian it was more than 100 µM; with SF-295 CNS, more than 100 µM.
In the case of `CN(CCOc1ccc(C#N)cc1)CCOc1ccc(C#N)cc1`, the GI50 in the assay on SK-MEL-5 melanoma is 78.6 µM; with OVCAR-3 ovarian it was 29.8 µM; in the assay with A549 NSCLC, more than 100 µM; with SF-268 CNS, more than 100 µM; with MOLT-4 leukemia it was 15.1 µM; with TK-10 renal, 28.7 µM. Further, the GI50 with UACC-62 melanoma is more than 100 µM; with SNB-75 CNS, more than 100 µM; with SK-OV-3 ovarian it was more than 100 µM; with SF-295 CNS, 17.3 µM. For the same compound, the concentration for total growth inhibition (TGI) with SK-MEL-5 melanoma is more than 100 µM; in the assay with OVCAR-3 ovarian, more than 100 µM; with A549 NSCLC, more than 100 µM; in the assay on SF-268 CNS it was more than 100 µM; in the assay on MOLT-4 leukemia it was 68.7 µM; in the assay on TK-10 renal, more than 100 µM. In addition, the TGI in the assay with UACC-62 melanoma, in the assay on SNB-75 CNS, in the assay with SK-OV-3 ovarian and in the assay with SF-295 CNS was more than 100 µM in each case.
Take `CN(C)CCOc1ccc2c(c1)C/C(=C/c1ncc([N+](=O)[O-])n1C)C2=O`: the TGI in the assay with SK-MEL-5 melanoma was 3.49 µM; in the assay on OVCAR-3 ovarian, 6.27 µM; in the assay with A549 NSCLC, 7.74 µM; in the assay with SF-268 CNS, 9.1 µM; with MOLT-4 leukemia, more than 22.6 µM; with TK-10 renal, 10.9 µM. Further, the TGI in the assay with UACC-62 melanoma amounted to 4.97 µM; with SNB-75 CNS, 7.54 µM; in the assay with SK-OV-3 ovarian, 15 µM; in the assay with SF-295 CNS, 20.3 µM.
`CC1=C(O)C(=O)C2C(=O)C1C(C)C2c1ccc(Cl)cc1` (stereo not given): the concentration for total growth inhibition (TGI) with SK-MEL-5 melanoma, in the assay on OVCAR-3 ovarian, with A549 NSCLC, in the assay with SF-268 CNS, in the assay with MOLT-4 leukemia and in the assay on TK-10 renal was more than 100 µM in each case. Besides, the TGI in the assay with UACC-62 melanoma, in the assay with SNB-75 CNS, in the assay on SK-OV-3 ovarian and in the assay with SF-295 CNS was more than 100 µM each time.
As to `O=C(CCl)N1c2ccccc2Sc2c1ccc1ccccc21`, the GI50 was 1.73 µM with SK-MEL-5 melanoma; 1.86 µM with OVCAR-3 ovarian; 9.52 µM in the assay on A549 NSCLC; 1.88 µM in the assay with SF-268 CNS; 2.49 µM with MOLT-4 leukemia; 3.86 µM with TK-10 renal. Also, the GI50 in the assay on UACC-62 melanoma is 2.07 µM; in the assay with SNB-75 CNS it was 2.45 µM; in the assay with SK-OV-3 ovarian, 13.4 µM; with SF-295 CNS, 2.38 µM. In addition, the TGI in the assay with SK-MEL-5 melanoma is 3.15 µM; with OVCAR-3 ovarian it was 3.26 µM; in the assay with A549 NSCLC, 30.3 µM; in the assay on SF-268 CNS, 3.47 µM; in the assay with MOLT-4 leukemia it was more than 100 µM; in the assay with TK-10 renal, 11.5 µM. Further, the concentration for total growth inhibition (TGI) in the assay with UACC-62 melanoma came to 4.9 µM; in the assay on SNB-75 CNS, 7.78 µM; in the assay on SK-OV-3 ovarian, 26.2 µM; in the assay with SF-295 CNS it was 6.53 µM.
